The results in this text go back to ChEMBL document CHEMBL3608235, “Pyrroloaryls and pyrroloheteroaryls: Inhibitors of the HIV fusion/attachment, reverse transcriptase and integrase” (Bioorg Med Chem, 2015).

Data set [1] relates to Human immunodeficiency virus. The data set is described as follows: Antiviral activity against HIV by XTT assay. In kind it is functional, organism-based. Conditions: Human immunodeficiency virus 1. (Tetrazolium assays rely on reduction of a dye to a coloured formazan, in cell work by metabolically active cells.)
Data set [2] has as its system Human immunodeficiency virus 1. Description: Antiviral activity against HIV1 3B. Conditions: Human immunodeficiency virus 1, 3B. In kind it is functional, organism-based.
The subject of data set [3] is Human immunodeficiency virus 2. Description: Antiviral activity against HIV2 ROD. The class given is functional, organism-based. The note with it: Human immunodeficiency virus 2, ISOLATE ROD.
For data set [4], the system named is Human immunodeficiency virus 1. Description: Antiviral activity against HIV1 infected in human C8166 cells assessed as inhibition of virus replication. The class given is functional, organism-based. The note with it: Human immunodeficiency virus 1, C8166.
Data set [5] can be described thus: Cytotoxicity against human C8166 cells. In kind it is cell-based. Conditions: human, C8166 cells.
A short description of data set [6]: Cytotoxicity against mock-infected human MT4 cells assessed as reduction in cell viability. In kind it is cell-based.
Data set [7] concerns Human immunodeficiency virus 1. Description: Antiviral activity against HIV1 infected in human MT4 cells assessed as reduction in virus-induced cytopathogenicity. The class given is functional, organism-based. The note with it: Human immunodeficiency virus 1, MT4. A general note: Protection from cytopathic effect is a common read-out in antiviral testing.
In data set [8] the target is Human immunodeficiency virus type 1 reverse transcriptase (Human immunodeficiency virus 1, UniProt Q72547). The data set is described as follows: Inhibition of HIV1 reverse transcriptase.
A short description of data set [9]: Selectivity index, ratio of CC50 for mock-infected human MT4 cells to EC50 for HIV1 infected in human MT4 cells. In kind it is toxicity, cell-based. The note with it: MT4 cells (mock-infected and HIV1-infected), read-out: Ratio CC50/EC50.

Regarding `CCCCCC(=O)NC1=NN(C)c2ncnc3c2c1cn3[C@@H]1O[C@H](CO)[C@@H](O)[C@H]1O`, in [1], the IC50 (as a rule, the concentration at which inhibition is half-maximal) is 0.35 µM.

Consider `O=C1N(Cc2ccccc2Cl)c2cccn2S(=O)(=O)N1Cc1cccc(Cl)c1`, for which the EC50 – broadly, the concentration that produces a half-maximal response – in data set [2] is 8.9 µM; in data set [3] it was above 150 µM.

In the case of `CCCCC(=O)NC1=NN(C)c2ncnc3c2c1cn3[C@@H]1O[C@H](CO)[C@@H](O)[C@H]1O`, the midpoint of inhibition in [1], the IC50, lay at 0.8 µM.

Consider `N#Cc1cccc(CN2C(=O)N(Cc3ccccc3)S(=O)(=O)n3cccc32)c1`, for which the EC50 in data set [2] was 6.5 µM; in [3] it was above 150 µM.

Turning to `O=C1N(Cc2ccccc2Cl)c2cccn2S(=O)(=O)N1Cc1cccc(F)c1`, the results for the EC50 in data set [2] and in data set [3] were 7.2 µM and above 150 µM, respectively.

`CCOC(=O)c1ncc(O)c2c1C(=O)N(CCc1c[nH]c3ccccc13)C2=O`: the EC50 in data set [4] was found to be 9.37 µM. Moreover, in data set [5], half-maximal cytotoxicity (CC50) was put at 26.7 µM.

For the molecule `CCOC(=O)c1ncc(O)c2c1C(=O)N(CC(c1ccccc1)c1ccccc1)C2=O`, in data set [4], the EC50 stood at 3.1 µM. Moreover, in data set [5], the CC50 (commonly the concentration giving 50% cytotoxicity) turned out to be 25.2 µM.

For `O=C1N(Cc2cccc(Cl)c2)c2cccn2S(=O)(=O)N1Cc1cccc(F)c1`, the EC50 is 11 µM in data set [2] and above 150 µM in data set [3].

With `CCCCCCCCCCCC(=O)NC1=NN(C)c2ncnc3c2c1cn3[C@@H]1O[C@H](CO)[C@@H](O)[C@H]1O`, the IC50 in data set [1] was above 100 µM.

Regarding `N#Cc1ccccc1CN1C(=O)N(Cc2cccc(F)c2)S(=O)(=O)n2cccc21`, the EC50 is 5.6 µM in data set [2] and above 150 µM in data set [3].

As to `CCCC(=O)NC1=NN(C)c2ncnc3c2c1cn3[C@@H]1O[C@H](CO)[C@@H](O)[C@H]1O`, the IC50 in data set [1] is 0.5 µM.

In [1], `CCCCCCC(=O)NC1=NN(C)c2ncnc3c2c1cn3[C@@H]1O[C@H](CO)[C@@H](O)[C@H]1O` yielded a concentration for half-maximal inhibition (IC50) of 0.035 µM.

For the molecule `O=C1N(Cc2ccccc2Cl)c2cccn2S(=O)(=O)N1Cc1cccc(Br)c1`, the EC50 in [2] is 18 µM; in data set [3], above 150 µM.

Consider `CCCCCCCCC(=O)NC1=NN(C)c2ncnc3c2c1cn3[C@@H]1O[C@H](CO)[C@@H](O)[C@H]1O`, for which the IC50 in data set [1] was above 100 µM.

Turning to `CCOC(=O)c1ncc(O)c2c1C(=O)N(CCc1ccc(C)cc1)C2=O`, in [4], the EC50 amounted to 2.34 µM. Further, half-maximal cytotoxicity in data set [5] (CC50) was put at 15.5 µM.

As to `CN1C(=O)c2cccn2S(=O)(=O)c2cc(Cl)ccc21`, in data set [6], the CC50 was above 300 µM. In addition, the EC50 in data set [7] is 0.5 µM. Further, the IC50 in data set [8] came to 0.5 µM. Further, the selectivity ratio in [9] is above 600.

Consider `C/C=C/CN1C(=O)c2cccn2S(=O)(=O)c2cc(Cl)ccc21`, for which, in [6], the CC50 was above 300 µM. The EC50 in data set [7] turned out to be 4.1 µM. This molecule registered an IC50 in data set [8] of 3.1 µM. Also, the selectivity ratio in [9] is above 73.

`CCCCCCCC(=O)NC1=NN(C)c2ncnc3c2c1cn3[C@@H]1O[C@H](CO)[C@@H](O)[C@H]1O`: the IC50 in [1] is above 100 µM.

`C=CCC1(c2ccccc2)Sc2ccccc2-n2cccc2C1=O` (configuration not stated): the CC50 in data set [6] turned out to be 25 µM. The EC50 in [7] amounted to 6.4 µM. This molecule showed an IC50 in data set [8] of 0.71 µM. For the same molecule, the selectivity ratio in data set [9] was 9.

In data set [1], `CCCCCCCCCC(=O)NC1=NN(C)c2ncnc3c2c1cn3[C@@H]1O[C@H](CO)[C@@H](O)[C@H]1O` returned an IC50 above 100 µM.

On to `O=C(NCc1ccc(F)cc1)c1ncc(O)c2c1C(=O)N(CCc1ccc(F)cc1)C2=O`, for which the EC50 in data set [4] came to 5.7 µM. This molecule also showed a CC50 in data set [5] of 30.8 µM.

In the case of `CCC1(c2ccc3ccccc3c2)Sc2ccccc2-n2cccc2C1=O` (configuration not stated), the CC50 in data set [6] came out at 0.5 µM. In addition, the EC50 in data set [7] amounted to 37.3 µM. The IC50 in data set [8] is 0.85 µM. In data set [9], the selectivity ratio was 9.

`CCOC(=O)c1ncc(O)c2c1C(=O)N(CCc1ccc(OC)c(OC)c1)C2=O`: the EC50 in data set [4] was 9.15 µM. Besides, in data set [5], half-maximal cytotoxicity (CC50) was put at 33.5 µM.

Consider `N#Cc1ccccc1CN1C(=O)N(Cc2ccccc2)S(=O)(=O)n2cccc21`, for which the EC50 is 5.1 µM in data set [2] and above 150 µM in data set [3].

On to `CCN1C(=O)c2cccn2S(=O)(=O)c2cc(Cl)ccc21`, for which the CC50 in data set [6] is above 300 µM. Moreover, the EC50 in data set [7] came out at 2.4 µM. This molecule also displayed an IC50 in data set [8] of 2.7 µM. Also, the selectivity ratio in [9] is 118.
